In patent US10232021B2, “Calcitonin mimetics for treating diseases and disorders” (KEYBIOSCIENCE AG, priority 2013, dated 2019):
Bridges are numbered along the chain shown (N, C = ends).

Tests used:
[1] = Eight-week treatment of obese rats: food intake and bodyweight; type: in vivo; conditions: 2.5 μg/kg/day subcutaneous
Method: To further investigate the potency of KBP-089 against KBP-042 obese rats were dosed with 2.5 μg/kg/day given as subcutaneous injection of either KBP-089 or KBP-042 and then two control groups, a vehicle and a calorie restriction group, in which the food intake was matched to the food intake of the KBP-089 group to shed light on whether effects independent of food intake could be observed.
In FIGS. 11A-11B; the effect of the peptides on food intake (FIG. 11A) and bodyweight (FIG. […]) during the eight week treatment period is shown in the upper and lower panels respectively. […] Additionally, when comparing KBP-089 to the calorie restricted control group (pair-fed), which has received exactly the same amount of food as the KBP-089 group over the study period, it is clear that the weight reduction is not only mediated by a restriction of food intake, but also by other effects.

[2] = Acute single-dose test on food intake, bodyweight and post-prandial glucose in high fat diet obese rats; type: in vivo, Male Sprague-Dawley rats
Method: To ensure the in vivo activity of this class of peptides, an acute test of the ability of KBP-056 to reduce food intake, bodyweight and post-prandial glucose compared to UGP302/KBP-042 was conducted. Male Sprague-Dawley rats were fed high fat diet for 8 weeks to induce obesity, and were then exposed to a single subcutaneous dose of 5 μg/kg KBP-056, UGP302/KBP-042 or vehicle (saline) (5 rats per group), and the effect on food intake, bodyweight and blood glucose was assessed. Blood was collected from the tail vein after 18 hours of dosing. Whole blood glucose levels were determined with an ACCU-CHEK® Avia blood glucose meter (Roche Diagnostics, Rotkreuz, Switzerland).

[3] = Single-dose food intake in obese High-Fat-Diet rats; type: in vivo; conditions: single subcutaneous dose 1.25, 2.5, 5 μg/kg; obese rats fasted overnight
Method: Rats were fed a High-Fat-Diet for 14 weeks prior to the experiment to induce obesity.
Further similar studies were undertaken over different time periods and with different peptides and the results are seen in FIG. 10 and FIGS. 11A-11B. The ability of KBP089 to suppress food intake over 72 hours was compared to that of KBP042 as control and the results are seen in FIG. 10.

[4] = Three-week treatment of ZDF rats: fasting plasma glucose and HbA1c; type: in vivo, male ZDF (fa/fa) rats; conditions: 5 μg/kg/day subcutaneously once daily, 3 weeks
Method: To assess the effects of the peptides in relation to regulation of blood glucose levels, male ZDF rats, which are the gold standard model of Type 2 Diabetes were treated for 3 weeks with the 3 most promising KBPs (023, 056 and 088) and an active comparator (UGP302/KBP-042). Male ZDF (fa/fa) rats were obtained at the age of 7 weeks from Charles River Laboratories (Kisslegg, Deutschland). All animals were housed at the animal facility at Nordic Bioscience with a constant temperature (21-23° C.) and relative humidity (55-65%) on a 12 h light/dark cycle with free access to Purina 5008 rat chow (Brogaarden, Lynge, Denmark) and tap water. At the age of 8 weeks, the animals were randomized into five groups of 8 rats each based upon fasting blood glucose and body weight (Vehicle (saline), UGP302/KBP-042 5 μg/kg/day, KBP-023 5 μg/kg/day, KBP-056 5 μg/kg/day and KBP-088 5 μg/kg/day) and dosing was done subcutaneously once daily. The animals were treated for a total of 3 weeks to assess the effect of the peptides on fasting blood glucose. Blood glucose was monitored using the Accu-Check® Avia monitoring system (Roche Diagnostics, Rotkreuz, Switzerland) and HbA1c levels by the DCA Vantage™ Analyzer (Siemens Healthcare Diagnostics, Deerfield, Ill.).

[5] = biological target: T1, Calcitonin Receptor (CTR) (Homo sapiens, UniProt P30988); assay: PathHunter β-arrestin assay on the calcitonin receptor, incl. prolonged activation; type: cell-based; conditions: U20S-CALCR cells; 4, 8, 24, 48, 72 h; 0.001-100 nM
T1 construct: host or cells: U2OS
T1 sequence (P30988 25-474): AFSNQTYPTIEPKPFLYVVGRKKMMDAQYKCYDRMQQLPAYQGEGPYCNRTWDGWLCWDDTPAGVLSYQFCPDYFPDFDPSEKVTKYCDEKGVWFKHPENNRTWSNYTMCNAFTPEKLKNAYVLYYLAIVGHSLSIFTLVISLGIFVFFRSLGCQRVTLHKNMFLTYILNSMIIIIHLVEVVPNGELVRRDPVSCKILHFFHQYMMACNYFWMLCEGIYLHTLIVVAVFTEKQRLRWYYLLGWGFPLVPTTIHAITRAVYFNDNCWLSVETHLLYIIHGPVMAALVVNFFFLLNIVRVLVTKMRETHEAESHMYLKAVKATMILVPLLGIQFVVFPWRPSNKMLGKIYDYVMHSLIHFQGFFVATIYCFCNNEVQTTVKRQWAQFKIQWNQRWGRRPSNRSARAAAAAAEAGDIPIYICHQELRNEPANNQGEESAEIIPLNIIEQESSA
Method: The following cell lines expressing the calcitonin, amylin and CGRP receptors were purchased and cultured according to the manufacturer's instructions. • 1. Calcitonin Receptor (CTR): U20S-CALCR from DiscoveRx (Cat. No.: 93-0566C3). • 2. Amylin Receptor (AMY-R): CHO-K1 CALCR+RAMP3 from DiscoveRx (Cat. No.: 93-0268C2). • 3. CGRP Receptor (CGRP-R): CHO-K1 CALCRL+RAMP1 from DiscoveRx (Cat. No.: 93-0269C2).
In independent bioassays, CTR, AMY-R and CGRP-R cells were treated with for the indicated timepoints with increasing doses of sCT, UGP-302/KBP-042 or the KBPs identified in Table 3 (0, 0.001, 0.01, 0.1, 1, 10, and 100 nM). […]
In this system, the GPCR is fused in frame with the small enzyme fragment ProLink™ and co-expressed in cells stably expressing a fusion protein of β-Arrestin and the larger, N-terminal deletion mutant of β-gal (called enzyme acceptor or EA). […] This interaction leads to an increase in enzyme activity that can be measured using chemiluminescent PathHunter® Detection Reagents.
The assay was performed in white 384 well plates (Greiner Bio-One, 784080). […] To quantify the GPCR-mediated β-arrestin recruitment the Pathhunter™ Detection Kit (93-0001, DiscoverX) was used and assay performed accordingly to the manufacturer's instructions. […]

[6] = Bone resorption (CTX-I) and cartilage degradation (CTX-II) in rats on HFD; type: in vivo; conditions: male rats on HFD
Text: This confirmed that the KBPs maintain their beneficial effects on bone and cartilage despite the amino-acid changes.

| Substance | bodyweight during eight week treatment [1] | food intake during eight week treatment [1] | RANK (48 h) ([2]; rank symbol + or 0 at 48 h, legend not given) | food intake, 0-4 hours [3] | food intake, 4-24 hours [3] | food intake, 24-48 hours [3] | HbA1c [4] | fasting plasma glucose (FPG) [4] | activation of the CTR (β-arrestin) [5] | food intake ([2]; single subcutaneous dose 5 μg/kg, 18-hour period, obese HFD rats) | post-prandial glucose ([2]; single subcutaneous dose 5 μg/kg, blood after 18 hours, obese HFD rats) | bodyweight ([2]; single subcutaneous dose 5 μg/kg, obese HFD rats) | bone resorption (CTX-I) [6] | cartilage degradation (CTX-II) [6] | maximum inhibition of CTX-I and CTX-II [6] |
| --- | --- | --- | --- | --- | --- | --- | --- | --- | --- | --- | --- | --- | --- | --- | --- |
| KBP-042: Peptide UGP302 of WO2013/067357, SEQ ID NO: 4; AcCSNLSTCVLGKLSQELHKLQTYPRTDVGANAP-NH2 (Ac-CSNLSTCVLGKLSQELHKLQTYPRTDVGANAP-NH2; ends and bridges not checked) [reference compound] | substantial weight loss | reduce food intake dramatically in the beginning | 0 | – | – | – | – | – | – | – | – | – | – | – | – |
| KBP-089: SEQ ID NO: 44; AcCSNLSTCMLGRLSQDLHRLQTYPKTDVGANAP-NH2, Cys1-Cys7 disulphide bridge (Ac-CSNLSTCMLGRLSQDLHRLQTYPKTDVGANAP-NH2; disulfide 1-7; SMILES CSCC[C@H](NC(=O)[C@@H]1CSSC[C@H](NC(C)=O)C(=O)N[C@@H](CO)C(=O)N[C@@H](CC(N)=O)C(=O)N[C@@H](CC(C)C)C(=O)N[C@@H](CO)C(=O)N[C@@H]([C@@H](C)O)C(=O)N1)C(=O)N[C@@H](CC(C)C)C(=O)NCC(=O)N[C@@H](CCCNC(=N)N)C(=O)N[C@@H](CC(C)C)C(=O)N[C@@H](CO)C(=O)N[C@@H](CCC(N)=O)C(=O)N[C@@H](CC(=O)O)C(=O)N[C@@H](CC(C)C)C(=O)N[C@@H](Cc1c[nH]cn1)C(=O)N[C@@H](CCCNC(=N)N)C(=O)N[C@@H](CC(C)C)C(=O)N[C@@H](CCC(N)=O)C(=O)N[C@H](C(=O)N[C@@H](Cc1ccc(O)cc1)C(=O)N1CCC[C@H]1C(=O)N[C@@H](CCCCN)C(=O)N[C@H](C(=O)N[C@@H](CC(=O)O)C(=O)N[C@H](C(=O)NCC(=O)N[C@@H](C)C(=O)N[C@@H](CC(N)=O)C(=O)N[C@@H](C)C(=O)N1CCC[C@H]1C(N)=O)C(C)C)[C@@H](C)O)[C@@H](C)O) | greater than that introduced by KBP-042 | reduce food intake dramatically in the beginning | – | led to a reduction in food intake | the effect was maintained to 24 hours | led to a reduction in food intake | – | – | – | – | – | – | – | – | – |
| KBP-056: SEQ ID NO: 11; AcCASLSTCVLGKLSQDLHKLQTFPRTDVGANAP-NH2 as printed in Table 3, Cys1-Cys7 disulphide bridge | – | – | – | – | – | – | highly active | highly active | superior ability to activate and maintain activation of the CTR | strongly reduced food intake | prominent reduction in post-prandial glucose levels | significant weight loss | dose and time-dependently reduced | dose and time-dependently reduced | reached three hours after dosing and at doses exceeding 1 μg/kg/day |
